Legend:
[1] = test system: KMS.12.BM cell line (human myeloma); assay: KMS.12.BM Cell Viability Assay; type: cell-based; details: 72 h, KMS.12.BM cells, 3 days, Cell Titer-GLO, read-out: KMS cellular IC50
Protocol: Example B1: KMS.12.BM Cell Viability Assay
KMS.12.BM cell line (human myeloma) was purchased from JCRB (Osaka, Japan) and maintained in RPMI with 10% FBS culture medium. To measure the cytotoxic activity of the compounds through ATP quantitation, the KMS.12.BM cells are plated in the RPMI culture medium at 5000 cells/well/per 100 μL into a 96-well polystyrene clear black tissue culture plate (Greiner-bio-one through VWR, NJ), in the presence or absence of a concentration range of test compounds. After 3 days, […] Cell Titer-GLO Luminescent (Promega, Madison, Wis.) cell culture agent is added to each well for 10 min. at room temperature to stabilize the luminescent signal. This determines the number of viable cells in culture based on quantitation of the ATP present, which signals the presence of metabolically active cells. Luminescence is measured with the Top Count 384 (Packard Bioscience through Perkin Elmer, Boston, Mass.). Compound inhibition is determined relative to cells cultured with no drug and the IC50 reported as the compound concentration required for 50% cell death.

[2] = test system: C-myc in KMS.12.BM cells; assay: KMS.12.BM C-myc ELISA Assay; type: cell-based; details: Homo sapiens, 2 h
Protocol: KMS.12.BM C-myc ELISA Assay
KMS.12.BM cell line (human myeloma) was purchased from JCRB (Osaka, Japan) and maintained in RPMI with 10% FBS culture medium. To measure the C-myc inhibitory activity of the compounds, the KMS.12.BM cells are plated in the RPMI culture medium at 75000 cells/well/per 200 μL into a 96-well flat bottom polystyrene tissue culture plate (Corning through VWR, NJ), in the presence or absence of a concentration range of test compounds. After 2 h, cells are pelleted and lysed with Cell Extraction Buffer (BioSource, Carlsbad, Calif.) in the presence of protease inhibitors (Life Technologies, Grand Island, N.Y. and Sigma, St Louis, Mo.). Clarified lyses are tested in a C-myc commercial ELISA (Life Technologies, Grand Island, N.Y.). Compound inhibition is determined relative to cells cultured with no drug and the IC50 reported as the compound concentration required for 50% C-myc inhibition.

IC50 [1] [nM] | IC50 [2] [nM] | SMILES
≤ 100 | ≤ 100 | CC(=O)N(C)C1CCN(c2nc3ccc(-c4c(C)noc4C)c4c3n2[C@@H](c2ccccn2)CO4)CC1 [Example 6, N-{1-[(4S)-7-(3,5-dimethylisoxazol-4-yl)-4-pyridin-2-yl-4,5-dihydroimidazo[1,5,4-de][1,4]benzoxazin-2-yl]piperidin-4-yl}-N-methylacetamide]
≤ 100 | ≤ 100 | Cc1noc(C)c1-c1ccc2nc(N3CCC(N(C)C(=O)C(C)(C)C)CC3)n3c2c1OC[C@@H]3c1ccccn1 [Example 18, N-{1-[(4S)-7-(3,5-dimethylisoxazol-4-yl)-4-pyridin-2-yl-4,5-dihydroimidazo[1,5,4-de][1,4]benzoxazin-2-yl]piperidin-4-yl}-N,2,2-trimethylpropanamide]
≤ 100 | ≤ 100 | CCCC(=O)N(C)C1CCN(c2nc3ccc(-c4c(C)noc4C)c4c3n2[C@@H](c2ccccn2)CO4)CC1 [Example 16, N-{1-[(4S)-7-(3,5-dimethylisoxazol-4-yl)-4-pyridin-2-yl-4,5-dihydroimidazo[1,5,4-de][1,4]benzoxazin-2-yl]piperidin-4-yl}-N-methylbutanamide]
≤ 100 | ≤ 100 | Cc1noc(C)c1-c1ccc2nc(N3CCC(N(C)C(=O)C4CC4)CC3)n3c2c1OC[C@@H]3c1ccccn1 [Example 19, N-{1-[(4S)-7-(3,5-dimelhylisoxazol-4-yl)-4-pyridin-2-yl-4,5-dihydroimidazo[1,5,4-de][1,4]benzoxazin-2-yl]piperidin-4-yl}-N-methylcyclopropanecarboxamide]
≤ 100 | ≤ 100 | CCC(=O)N(C)C1CCN(c2nc3ccc(-c4c(C)noc4C)c4c3n2[C@@H](c2ccccn2)CO4)CC1 [Example 15, N-{1-[(4S)-7-(3,5-dimethylisoxazol-4-yl)-4-pyridin-2-yl-4,5-dihydroimidazo[1,5,4-de][1,4]benzoxazin-2-yl]piperidin-4-yl}-N-methylpropanamide]
≤ 100 | ≤ 100 | Cc1noc(C)c1-c1ccc2nc(N3CCC(N(C)C(=O)N(C)C)CC3)n3c2c1OC[C@@H]3c1ccccn1 [Example 21, N-{1-[(4S)-7-(3,5-dimethylisoxazol-4-yl)-4-pyridin-2-yl-4,5-dihydroimidazo[1,5,4-de][1,4]benzoxazin-2-yl]piperidin-4-yl}-N,N′,N′-trimethylurea]
≤ 100 | ≤ 100 | CCCC(=O)NC1CCN(c2nc3ccc(-c4c(C)noc4C)c4c3n2[C@@H](c2ccccn2)CO4)CC1 [Example 10, N-{1-[(4S)-7-(3,5-dimethylisoxazol-4-yl)-4-pyridin-2-yl-4,5-dihydroimidazo[1,5,4-de][1,4]benzoxazin-2-yl]piperidin-4-yl}butanamide]

Further lines, the molecule ahead of its results:

SMILES | IC50 [1] [nM] | IC50 [2] [nM]
CC(=O)NC1(C)CCN(c2nc3ccc(-c4c(C)noc4C)c4c3n2[C@@H](c2ccccn2)CO4)CC1 [Example 5, N-{1-[(4S)-7-(3,5-dimethylisoxazol-4-yl)-4-pyridin-2-yl-4,5-dihydroimidazo[1,5,4-de][1,4]benzoxazin-2-yl]-4-methylpiperidin-4-yl}acetamide] | ≤ 100 | ≤ 100
CCS(=O)(=O)NC1CCN(c2nc3ccc(-c4c(C)noc4C)c4c3n2[C@@H](c2ccccn2)CO4)CC1 [Example 14, N-{1-[(4S)-7-(3,5-dimethylisoxazol-4-yl)-4-pyridin-2-yl-4,5-dihydroimidazo[1,5,4-de][1,4]benzoxazin-2-yl]piperidin-4-yl}ethanesulfonamide] | ≤ 100 | ≤ 100
Cc1noc(C)c1-c1ccc2nc(N3CCC(N(C)C(=O)C4CCC4)CC3)n3c2c1OC[C@@H]3c1ccccn1 [Example 20, N-{1-[(4S)-7-(3,5-dimethylisoxazol-4-yl)-4-pyridin-2-yl-4,5-dihydroimidazo[1,5,4-de][1,4]benzoxazin-2-yl]piperidin-4-yl}-N-methylcyclobutanecarboxamide] | ≤ 100 | 100 to 1000
CCC(=O)N1CCN(c2nc3ccc(-c4c(C)noc4C)c4c3n2[C@@H](c2ccccn2)CO4)C[C@@H]1C [Example 8, (4S)-7-(3,5-dimethylisoxazol-4-yl)-2-[(3S)-3-methyl-4-propionylpiperazin-1-yl]-4-pyridin-2-yl-4,5-dihydroimidazo[1,5,4-de][1,4]benzoxazine] | ≤ 100 | ≤ 100
COCC(=O)N1CCN(c2nc3ccc(-c4c(C)noc4C)c4c3n2[C@@H](c2ccccn2)CO4)CC1 [Example 29, (4S)-7-(3,5-dimethylisoxazol-4-yl)-2-[4-(methoxyacetyl)piperazin-1-yl]-4-pyridin-2-yl-4,5-dihydroimidazo[1,5,4-de][1,4]benzoxazine] | ≤ 100 | ≤ 100
Cc1noc(C)c1-c1ccc2nc(N3CCN(C(=O)C(C)C)[C@@H](C)C3)n3c2c1OC[C@@H]3c1ccccn1 [Example 9, (4S)-7-(3,5-dimethylisoxazol-4-yl)-2-[(3S)-4-isobutyryl-3-methylpiperazin-1-yl]-4-pyridin-2-yl-4,5-dihydroimidazo[1,5,4-de][1,4]benzoxazine] | ≤ 100 | ≤ 100
CC(=O)N1CCN(c2nc3ccc(-c4c(C)noc4C)c4c3n2[C@@H](c2ccccn2)CO4)C[C@@H]1C [Example 7, (4S)-2-[(3S)-4-acetyl-3-methylpiperazin-1-yl]-7-(3,5-dimethylisoxazol-4-yl)-4-pyridin-2-yl-4,5-dihydroimidazo[1,5,4-de][1,4]benzoxazine] | ≤ 100 | ≤ 100
CCCC(=O)N1CCN(c2nc3ccc(-c4c(C)noc4C)c4c3n2[C@@H](c2ccccn2)CO4)CC1 [Example 25, (4S)-2-(4-butyrylpiperazin-1-yl)-7-(3,5-dimethylisoxazol-4-yl)-4-pyridin-2-yl-4,5-dihydroimidazo[1,5,4-de][1,4]benzoxazine] | ≤ 100 | ≤ 100
Cc1noc(C)c1-c1ccc2nc(N3CCN(C(=O)C4CCC4)CC3)n3c2c1OC[C@@H]3c1ccccn1 [Example 28, (4S)-2-[4-(cyclobutylcarbonyl)piperazin-1-yl]-7-(3,5-dimethylisoxazol-4-yl)-4-pyridin-2-yl-4,5-dihydroimidazo[1,5,4-de][1,4]benzoxazine] | ≤ 100 | 100 to 1000
Cc1noc(C)c1-c1ccc2nc(N3CCC(NC(=O)C4CCC4)CC3)n3c2c1OC[C@@H]3c1ccccn1 [Example 13, N-{1-[(4S)-7-(3,5-dimethylisoxazol-4-yl)-4-pyridin-2-yl-4,5-dihydroimidazo[1,5,4-de][1,4]benzoxazin-2-yl]piperidin-4-yl}cyclobutanecarboxamide] | ≤ 100 | ≤ 100
Cc1noc(C)c1-c1ccc2nc(N3CCC(NC(=O)C(C)(C)C)CC3)n3c2c1OC[C@@H]3c1ccccn1 [Example 11, N-{1-[(4S)-7-(3,5-dimethylisoxazol-4-yl)-4-pyridin-2-yl-4,5-dihydroimidazo[1,5,4-de][1,4]benzoxazin-2-yl]piperidin-4-yl}-2,2-dimethylpropanamide] | ≤ 100 | ≤ 100
